# Measured values: article PMC7114863 (Journal of Hepatology, 2009)
# Columns and labels:
# HuH6 replicons = test: Anti-HCV replicon assay in HuH6 cells; details: Hepatitis C virus, HuH-6, read-out: Anti-HCV activity EC50, HuH6
# GSK-4^res replicon = test: Anti-HCV assay, GSK-4 resistant replicon
# Cytostatic assay = type: cell-based; details: human, HCV replicon-containing cells (Huh 5-2, HuH6 or Huh 9-13)
# [1] = tested on: J6/JFH chimeric HCV reporter virus (J6/JFH-Rluc2a-FLAG); test: Antiviral assay with HCVcc virus in Huh-Lunet cells; type: cell-based, HCV genotype 2a; details: Hepatitis C virus, 72 h, read-out: Anti-HCV activity EC50, J6/JFH
# HCV = details: cited from earlier work
# BILN-2061^res replicon = test: Anti-HCV assay, BILN-2061 resistant replicon
# [2] = tested on: VX-950^res and BILN-2061^res replicon; test: Anti-HCV assay, VX-950 and BILN-2061 double resistant replicon
# [3] = tested on: HCV replicon in Huh 9-13 cells; test: HCV replicon clearance-rebound assay; type: cell-based; details: five times EC50, 3 passages
# [4] = tested on: 4′-Azidocytidine^res replicon; test: Anti-HCV assay, 4′-azidocytidine resistant replicon
# 2′-C-MeCyt^res replicon = test: Anti-HCV assay, 2′-C-MeCyt resistant replicon
compound,measurement,setting,value
CNC(=O)c1c(-c2ccc(F)cc2)oc2cc(N(CCO)S(C)(=O)=O)c(C3CC3)cc12 [HCV-796],EC50,HuH6 replicons,0.01 ± 0.003 µM
same,EC50,"GSK-4^res replicon; Hepatitis C virus, read-out: EC50, GSK-4^res",0.06 ± 0.03 µM
same,"fold resistance, GSK-4^res",GSK-4^res replicon; versus wild-type replicon,(0.75)
same,CC50,Cytostatic assay,> 33 µM
same,EC50,[1],< 0.1 µM
NC(=O)c1ncn([C@@H]2O[C@H](CO)[C@@H](O)[C@H]2O)n1 [Ribavirin],EC50,HuH6 replicons,28 ± 16 µM
same,CC50,Cytostatic assay,> 33 µM
"CC(C)(C)NC(=O)N[C@H](C(=O)N1C[C@H]2[C@@H]([C@H]1C(=O)NC(CC1CCC1)C(=O)C(N)=O)C2(C)C)C(C)(C)C (stereo partly drawn) [SCH 503034, (1R,5S)-N-[3-amino-1-(cyclobutylmethyl)-2,3-dioxopropyl]-3-[2(S)-[[[(1,1-dimethylethyl)amino]carbonyl]amino]-3,3-dimethyl-1-oxobutyl]-6,6-dimethyl-3-azabicyclo[3.1.0]hexan-2(S)-carboxamide]",CC50,Cytostatic assay,≥ 7.4 µM
same,EC50,[1],0.34 µM
CC1CCC(C(=O)N(c2cc(-c3ccccc3)sc2C(=O)O)C2CCC(O)CC2)CC1 (centres unmarked) [VCH-759],tolerability in early clinical studies,HCV; HCV-infected patients,generally well-tolerated
same,decrease in HCV RNA,HCV; after 10 days of treatment in HCV-infected patients,2.5 log10
CCC[C@H](NC(=O)[C@@H]1[C@H]2CCC[C@H]2CN1C(=O)[C@@H](NC(=O)[C@@H](NC(=O)c1cnccn1)C1CCCCC1)C(C)(C)C)C(=O)C(=O)NC1CC1 [VX-950],EC50,HuH6 replicons,1.4 ± 0.49 µM
same,EC50,"BILN-2061^res replicon; Hepatitis C virus, read-out: EC50, BILN-2061^res",0.31 ± 0.05 µM
same,"fold resistance, BILN-2061^res",BILN-2061^res replicon; versus wild-type replicon,(0.53)
same,EC50,"[2]; Hepatitis C virus, read-out: EC50, VX-950^res and BILN-2061^res",14 ± 1.4 µM
same,"fold resistance, VX-950^res and BILN-2061^res",[2]; versus wild-type replicon,(24)
same,"clearance of Huh 9-13 cells from their replicon, drug alone",[3],did not achieve complete clearance
same,CC50,Cytostatic assay,≥ 24 µM
same,EC50,"[4]; Hepatitis C virus, read-out: EC50, 4′-Azidocytidine^res",0.69 ± 0.15 µM
same,"fold resistance, 4′-Azidocytidine^res",[4]; versus wild-type replicon,(1.2)
same,EC50,[1],0.29 ± 0.11 µM
same,EC50,"2′-C-MeCyt^res replicon; Hepatitis C virus, read-out: EC50, 2′-C-MeCyt^res",1 ± 0.03 µM
same,"fold resistance, 2′-C-MeCyt^res",2′-C-MeCyt^res replicon; versus wild-type replicon,(1.7)
